In patent publication US20220081412A1, “QUINOLINYL-PYRAZINE-CARBOXAMIDE COMPOUNDS AND USES THEREOF” (The Regents of the University of Michigan, priority 2018, published 2022):

Test system: MIA PaCa-2 cells
Test: Bru-seq analysis for nascent RNA synthesis (log2FC of genes, GSEA gene sets)
Type: cell-based, human
Details: 4 h
[1] = gene set HALLMARK_IL2_STAT5_SIGNALING
[2] = gene set HALLMARK_IL6_JAK_STAT3_SIGNALING
[3] = gene set HALLMARK_MTORC1_SIGNALING
[4] = gene set HALLMARK_OXIDATIVE_PHOSPHORYLATION
[5] = gene set HALLMARK_PI3K_AKT_MTOR_SIGNALING
[6] = gene set HALLMARK_TNFA_SIGNALING_VIA_NFKB
[7] = gene set HALLMARK_UNFOLDED_PROTEIN_RESPONSE
[8] = gene set HALLMARK_UV_RESPONSE_UP
[9] = gene set HALLMARK_XENOBIOTIC_METABOLISM
[10] = gene set HELLER_SILENCED_BY_METHYLATION_DN
[11] = gene set KAN_RESPONSE_TO_ARSENIC_TRIOXIDE
[12] = gene set KEGG_ACUTE_MYELOID_LEUKEMIA
[13] = gene set KEGG_ADIPOCYTOKINE_SIGNALING_PATHWAY
[14] = gene set KEGG_ALDOSTERONE_REGULATED_SODIUM_REABSORPTION
[15] = gene set KEGG_ANTIGEN_PROCESSING_AND_PRESENTATION
[16] = gene set KEGG_CITRATE_CYCLE_TCA_CYCLE
[17] = gene set KEGG_ENDOMETRIAL_CANCER
[18] = gene set KEGG_FATTY_ACID_METABOLISM
[19] = gene set KEGG_FRUCTOSE_AND_MANNOSE_METABOLISM
[20] = gene set KEGG_GLYCEROLIPID_METABOLISM
[21] = gene set KEGG_GLYCOLYSIS_GLUCONEOGENESIS
[22] = gene set KEGG_INSULIN_SIGNALING_PATHWAY
[23] = gene set KEGG_MAPK_SIGNALING_PATHWAY
[24] = gene set KEGG_MTOR_SIGNALING_PATHWAY
[25] = gene set KEGG_OXIDATIVE_PHOSPHORYLATION
[26] = gene set KEGG_PARKINSONS_DISEASE
[27] = gene set KEGG_PORPHYRIN_AND_CHLOROPHYLL_METABOLISM
[28] = gene set KEGG_PPAR_SIGNALING_PATHWAY
[29] = gene set KEGG_PYRUVATE_METABOLISM
[30] = gene set KEGG_SNARE_INTERACTIONS_IN_VESICULAR_TRANSPORT
[31] = gene set KEGG_SYSTEMIC_LUPUS_ERYTHEMATOSUS
[32] = gene set KEGG_VALINE_LEUCINE_AND_ISOLEUCINE_DEGRADATION
[33] = gene set PODAR_RESPONSE_TO_ADAPHOSTIN_UP
[34] = gene set REACTOME_CHOLESTEROL_BIOSYNTHESIS
[35] = gene set REACTOME_RNA_POL_I_PROMOTER_OPENING
[36] = gene set REACTOME_UNFOLDED_PROTEIN_RESPONSE
[37] = gene set SCHMIDT_POR_TARGETS_IN_LIMB_BUD_UP
[38] = gene set WILCOX_RESPONSE_TO_PROGESTERONE_UP
[39] = gene set ZHANG_TLX_TARGETS_36HR_UP
[40] = top downregulated genes, MIA PaCa-2 cells

**Q.** Which results are given for CCN(CC)CCCC(C)Nc1cnc(C(=O)Nc2cc(C)cc3cccnc23)cn1 (stereo not shown) [J4, 5-((5-(diethylamino)pentan-2-yl)amino)-N-(6-methylquinolin-8-yl)pyrazine-2-carboxamide]?
**A.** ES [1]: 0.424; NES [1]: 1.597; ES [2]: 0.443; NES [2]: 1.405; ES [3]: 0.626; NES [3]: 2.450; ES (gene set HALLMARK_MYOGENESIS): 0.541; NES (gene set HALLMARK_MYOGENESIS): 1.885; ES [4]: 0.403; NES [4]: 1.601; ES (gene set HALLMARK_P53_PATHWAY): 0.565; NES (gene set HALLMARK_P53_PATHWAY): 2.171; ES (gene set HALLMARK_PEROXISOME): 0.457; NES (gene set HALLMARK_PEROXISOME): 1.612; ES [5]: 0.566; NES [5]: 2.033; ES [6]: 0.536; NES [6]: 2.043; ES [7]: 0.582; NES [7]: 2.173; ES [8]: 0.478; NES [8]: 1.769; ES [9]: 0.409; NES [9]: 1.503; ES [10]: 0.714; NES [10]: 2.396; ES (gene set HORTON_SREBF_TARGETS): 0.911; NES (gene set HORTON_SREBF_TARGETS): 2.446; ES [11]: 0.655; NES [11]: 2.270; ES [12]: 0.524; NES [12]: 1.701; ES [13]: 0.547; NES [13]: 1.770; ES [14]: 0.556; NES [14]: 1.480; ES [15]: 0.536; NES [15]: 1.506; ES [16]: 0.561; NES [16]: 1.683; ES [17]: 0.482; NES [17]: 1.543; ES [18]: 0.507; NES [18]: 1.505; ES [19]: 0.547; NES [19]: 1.529; ES [20]: 0.573; NES [20]: 1.640; ES [21]: 0.578; NES [21]: 1.735; ES [22]: 0.455; NES [22]: 1.663; ES (gene set KEGG_LYSOSOME): 0.611; NES (gene set KEGG_LYSOSOME): 2.224; ES [23]: 0.393; NES [23]: 1.504; ES (gene set KEGG_MELANOGENESIS): 0.526; NES (gene set KEGG_MELANOGENESIS): 1.713; ES [24]: 0.530; NES [24]: 1.631; ES [25]: 0.464; NES [25]: 1.705; ES [26]: 0.424; NES [26]: 1.536; ES [27]: 0.613; NES [27]: 1.657; ES [28]: 0.583; NES [28]: 1.733; ES (gene set KEGG_PROSTATE_CANCER): 0.445; NES (gene set KEGG_PROSTATE_CANCER): 1.564; ES [29]: 0.525; NES [29]: 1.529; ES [30]: 0.535; NES [30]: 1.642; ES [31]: 0.689; NES [31]: 2.185; ES [32]: 0.491; NES [32]: 1.536; ES (gene set LEONARD_HYPDXIA): 0.811; NES (gene set LEONARD_HYPDXIA): 2.480; ES (gene set LE_EGR2_TARGETS_DN): 0.689; NES (gene set LE_EGR2_TARGETS_DN): 2.287; ES [33]: 0.678; NES [33]: 2.520; ES (gene set QI_HYPDXIA): 0.624; NES (gene set QI_HYPDXIA): 2.258; ES (gene set REACTOME_AMYLO1DS): 0.753; NES (gene set REACTOME_AMYLO1DS): 2.309; ES [34]: 0.913; NES [34]: 2.477; ES [35]: 0.820; NES [35]: 2.377; ES [36]: 0.651; NES [36]: 2.246; ES [37]: 0.921; NES [37]: 2.469; ES [38]: 0.642; NES [38]: 2.380; ES [39]: 0.615; NES [39]: 2.339; ES (gene set ZHANG_TLX_TARGETS_UP): 0.710; NES (gene set ZHANG_TLX_TARGETS_UP): 2.353; log2FC ABCA1 [40]: −1.14; log2FC AGAP6 [40]: −0.85; log2FC AKAP5 [40]: −0.77; log2FC CACNG8 [40]: −0.75; log2FC CCND1 [40]: −0.67; log2FC FERMT1 [40]: −0.91; log2FC GPR75-ASB3 [40]: −0.89; log2FC GPR135 [40]: −1.30; log2FC HRH4 [40]: −1.09; log2FC MX2 [40]: −0.78; log2FC NEXN [40]: −0.76; log2FC NOG [40]: −0.93; log2FC NOXRED1 [40]: −0.73; log2FC NPIPB11 [40]: −0.67; log2FC NPR2 [40]: −1.08; log2FC NTSR1 [40]: −0.89; log2FC PTCH2 [40]: −0.72; log2FC RFLNB [40]: −0.79; log2FC SPDYA [40]: −1.18; log2FC SYCE2 [40]: −0.98; log2FC TAS2R20 [40]: −0.81; log2FC TNS4 [40]: −1.05; log2FC TSPAN4 [40]: −0.68; log2FC TXNRD3NB [40]: −0.72; log2FC ZDHHC11 [40]: −0.86
